Key:
[1] = molecular target: T1, MAPK9 (Homo sapiens, UniProt P45984); experiment: DSF; format: binding;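 further: compound tested at 10 µM with 2 µM protein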
T1 construct: purchased in-house DSF panel (SGC Frankfurt)
Procedure: (§3) Recombinant protein kinase domains with a concentration of 2 μM were mixed with a 10 μM compound solution in DMSO, 20 mM HEPES, pH 7.5, and 500 mM NaCl. SYPRO Orange (5000×, Invitrogen) was added as a fluorescence probe (1 µl per mL). Subsequently, temperature-dependent protein unfolding profiles were measured, using the QuantStudio™ 5 realtime PCR machine (Thermo Fisher, Waltham, MA, USA). […] The temperature was raised with a step rate of 3 °C per minute. Data points were analyzed with the internal software (Thermal Shift SoftwareTM Version 1.4, Thermo Fisher) using the Boltzmann equation to determine the inflection point of the transition curve [56]. Differences in melting temperature are given as ΔTm values in °C. Measurements were performed in duplicates.

[2] = molecular target: T2, DAPK3 (Homo sapiens, UniProt O43293); experiment: DSF; format: binding
T2 construct: purchased in-house DSF panel (SGC Frankfurt)
Procedure: as §3

[3] = molecular target: T3, DYRK1A (Homo sapiens, UniProt Q13627); experiment: DSF; format: binding
T3 construct: purchased in-house DSF panel (SGC Frankfurt)
Procedure: as §3

[4] = tested on: TAF1; experiment: DSF; format: binding;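 further: compound tested at 10 µM with 2 µM protein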
Procedure: as §3

[5] = molecular target: T4, EPHA4 (Homo sapiens, UniProt P54764); experiment: DSF; format: binding
T4 construct: purchased in-house DSF panel (SGC Frankfurt)
T4 sequence (P54764 606-890): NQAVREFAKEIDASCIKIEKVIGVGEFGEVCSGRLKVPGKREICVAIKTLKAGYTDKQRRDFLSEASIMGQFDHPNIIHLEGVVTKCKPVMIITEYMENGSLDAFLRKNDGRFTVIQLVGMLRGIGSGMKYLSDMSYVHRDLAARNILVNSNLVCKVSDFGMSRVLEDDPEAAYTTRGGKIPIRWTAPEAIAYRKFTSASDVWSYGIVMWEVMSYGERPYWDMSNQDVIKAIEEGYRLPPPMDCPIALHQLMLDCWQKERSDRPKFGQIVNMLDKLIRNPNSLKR
Procedure: (§1) Measurements were performed in duplicates.

[6] = molecular target: T5, NEK2 (Homo sapiens, UniProt P51955); experiment: DSF; format: binding
T5 construct: purchased in-house DSF panel (SGC Frankfurt)
T5 sequence (P51955 1-271): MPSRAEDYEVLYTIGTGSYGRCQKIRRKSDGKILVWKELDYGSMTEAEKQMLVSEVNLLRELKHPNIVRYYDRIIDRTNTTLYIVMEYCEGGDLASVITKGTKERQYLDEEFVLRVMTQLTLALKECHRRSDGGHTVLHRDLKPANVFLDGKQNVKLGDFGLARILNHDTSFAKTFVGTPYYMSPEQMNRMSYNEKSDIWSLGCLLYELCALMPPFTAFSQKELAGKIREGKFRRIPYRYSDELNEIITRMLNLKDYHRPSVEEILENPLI
Procedure: as §1

[7] = molecular target: T6, HIPK2 (Homo sapiens, UniProt Q9H2X6); experiment: DSF; format: binding
T6 construct: purchased in-house DSF panel (SGC Frankfurt)
T6 sequence (Q9H2X6 199-527): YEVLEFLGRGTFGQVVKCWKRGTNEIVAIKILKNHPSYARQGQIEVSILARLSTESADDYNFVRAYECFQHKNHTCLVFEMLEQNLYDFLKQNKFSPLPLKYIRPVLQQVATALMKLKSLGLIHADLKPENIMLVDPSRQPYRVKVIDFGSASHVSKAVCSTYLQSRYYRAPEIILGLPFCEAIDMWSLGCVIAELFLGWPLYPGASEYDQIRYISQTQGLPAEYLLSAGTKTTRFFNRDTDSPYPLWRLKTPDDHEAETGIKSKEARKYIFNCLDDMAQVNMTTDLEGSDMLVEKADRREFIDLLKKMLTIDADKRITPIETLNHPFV
Procedure: as §1

[8] = molecular target: T7, STK17B (Homo sapiens, UniProt O94768); experiment: DSF; format: binding
T7 construct: purchased in-house DSF panel (SGC Frankfurt)
T7 sequence (O94768 25-329): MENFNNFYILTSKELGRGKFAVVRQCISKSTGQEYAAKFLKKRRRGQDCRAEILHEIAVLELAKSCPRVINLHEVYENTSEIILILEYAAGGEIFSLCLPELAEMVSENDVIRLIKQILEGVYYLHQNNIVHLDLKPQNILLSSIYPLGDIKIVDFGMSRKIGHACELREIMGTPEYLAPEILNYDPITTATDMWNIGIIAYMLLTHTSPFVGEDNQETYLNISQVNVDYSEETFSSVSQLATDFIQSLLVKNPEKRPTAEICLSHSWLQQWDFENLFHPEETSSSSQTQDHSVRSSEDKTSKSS
Procedure: as §3

[9] = molecular target: T8, CDK7 (Homo sapiens, UniProt P50613); experiment: NanoBRET; format: cell-based; settings: read-out: NanoBRET EC50 ± SEM CDK7
T8 construct: Full-length kinases were obtained as plasmids cloned in frame with a terminal NanoLuc-fusion; host or cells: HEK293T
T8 sequence (P50613 whole entry, the tested form may be a part): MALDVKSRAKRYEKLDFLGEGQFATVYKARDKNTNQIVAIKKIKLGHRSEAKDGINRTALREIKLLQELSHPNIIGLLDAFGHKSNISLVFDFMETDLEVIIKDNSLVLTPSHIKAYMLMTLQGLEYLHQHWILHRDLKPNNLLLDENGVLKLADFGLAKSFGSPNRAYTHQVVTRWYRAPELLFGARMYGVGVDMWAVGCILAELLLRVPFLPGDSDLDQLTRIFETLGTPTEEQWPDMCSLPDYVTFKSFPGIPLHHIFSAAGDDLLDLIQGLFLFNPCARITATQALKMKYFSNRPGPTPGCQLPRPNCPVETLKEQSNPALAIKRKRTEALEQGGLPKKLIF
Procedure: (§2) The assay was performed as described previously. In brief: Full-length kinases were obtained as plasmids cloned in frame with a terminal NanoLuc-fusion (Promega, Madison, WI, USA), as specified in table (Table S6). Plasmids were transfected into HEK293T cells using FuGENE HD (Promega, E2312) and proteins were allowed to express for 20h. Serially diluted inhibitor and NanoBRET Kinase Tracer (Promega) at a concentration determined previously as the KD,app (Table S5) were pipetted into white 384-well plates (Greiner 781207) using an Echo acoustic dispenser (Labcyte, San Jose, CA, USA). The corresponding protein-transfected cells were added and reseeded at a density of 2.5 × 10^5 cells/mL after trypsinization and resuspending in Opti-MEM without phenol red (Life Technologies, Carlsbad, CA, USA). The system was allowed to equilibrate for 2 h at 37 °C/5% CO2 prior to BRET measurements. To measure BRET, NanoBRET NanoGlo Substrate + Extracellular NanoLuc Inhibitor (Promega, N2540) was added as per the manufacturer’s protocol, and filtered luminescence was measured on a PHERAstar plate reader (BMG Labtech, Ortenberg, Germany) equipped with a luminescence filter pair (450 nm BP filter (donor) and 610 nm LP filter (acceptor)). Competitive displacement data were then graphed using GraphPad Prism 9 software using a normalized 3-parameter curve fit with the following equation: Y = 100/(1 + 10^(X–LogEC50)).

[10] = molecular target: CDK17/Cyclin Y (Homo sapiens, UniProt Q00537); experiment: NanoBRET; format: cell-based; settings: read-out: NanoBRET EC50 ± SEM CDK17/Cyclin Y
Sequence of CDK17/Cyclin Y (Q00537 whole entry): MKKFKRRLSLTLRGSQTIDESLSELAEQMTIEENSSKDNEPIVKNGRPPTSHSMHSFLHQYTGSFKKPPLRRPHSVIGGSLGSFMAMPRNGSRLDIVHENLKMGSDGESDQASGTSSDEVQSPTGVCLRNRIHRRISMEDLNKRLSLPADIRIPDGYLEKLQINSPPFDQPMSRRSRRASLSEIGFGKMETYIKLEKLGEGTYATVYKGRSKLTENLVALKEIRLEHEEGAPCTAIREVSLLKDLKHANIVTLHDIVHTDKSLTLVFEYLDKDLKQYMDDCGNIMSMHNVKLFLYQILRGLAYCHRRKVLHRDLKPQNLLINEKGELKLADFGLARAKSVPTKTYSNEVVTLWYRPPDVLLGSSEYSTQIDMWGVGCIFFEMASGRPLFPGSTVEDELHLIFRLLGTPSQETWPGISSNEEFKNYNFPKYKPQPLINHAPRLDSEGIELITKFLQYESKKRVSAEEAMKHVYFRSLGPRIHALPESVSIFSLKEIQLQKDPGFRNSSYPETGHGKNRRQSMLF
Sequence of CDK17/Cyclin Y (Q8ND76 2-341 partner limits assumed): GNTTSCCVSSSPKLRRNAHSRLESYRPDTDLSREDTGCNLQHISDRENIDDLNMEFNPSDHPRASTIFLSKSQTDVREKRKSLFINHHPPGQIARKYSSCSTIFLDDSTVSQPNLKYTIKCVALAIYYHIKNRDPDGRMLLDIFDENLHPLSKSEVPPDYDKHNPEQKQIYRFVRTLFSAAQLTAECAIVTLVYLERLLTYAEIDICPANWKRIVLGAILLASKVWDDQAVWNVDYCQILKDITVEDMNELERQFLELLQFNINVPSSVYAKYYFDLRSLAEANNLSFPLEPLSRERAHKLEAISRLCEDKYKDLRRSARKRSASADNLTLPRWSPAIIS
Procedure: as §2

[11] = molecular target: T9, CDK6/Cyclin D3 (Homo sapiens, UniProt Q00534); experiment: NanoBRET; format: cell-based; settings: read-out: NanoBRET EC50 ± SEM CDK6/Cyclin D3
T9 construct: Full-length kinases were obtained as plasmids cloned in frame with a terminal NanoLuc-fusion; CS1810C87 (CCND3); host or cells: HEK293T
Procedure: as §2

[12] = molecular target: T10, CDK13/Cyclin K (Homo sapiens, UniProt Q14004); experiment: NanoBRET; format: cell-based; settings: read-out: NanoBRET EC50 ± SEM CDK13/Cyclin K
T10 construct: Full-length kinases were obtained as plasmids cloned in frame with a terminal NanoLuc-fusion; CS1810C93 (CCNK); host or cells: HEK293T
T10 sequence (Q14004 whole entry, the tested form may be a part): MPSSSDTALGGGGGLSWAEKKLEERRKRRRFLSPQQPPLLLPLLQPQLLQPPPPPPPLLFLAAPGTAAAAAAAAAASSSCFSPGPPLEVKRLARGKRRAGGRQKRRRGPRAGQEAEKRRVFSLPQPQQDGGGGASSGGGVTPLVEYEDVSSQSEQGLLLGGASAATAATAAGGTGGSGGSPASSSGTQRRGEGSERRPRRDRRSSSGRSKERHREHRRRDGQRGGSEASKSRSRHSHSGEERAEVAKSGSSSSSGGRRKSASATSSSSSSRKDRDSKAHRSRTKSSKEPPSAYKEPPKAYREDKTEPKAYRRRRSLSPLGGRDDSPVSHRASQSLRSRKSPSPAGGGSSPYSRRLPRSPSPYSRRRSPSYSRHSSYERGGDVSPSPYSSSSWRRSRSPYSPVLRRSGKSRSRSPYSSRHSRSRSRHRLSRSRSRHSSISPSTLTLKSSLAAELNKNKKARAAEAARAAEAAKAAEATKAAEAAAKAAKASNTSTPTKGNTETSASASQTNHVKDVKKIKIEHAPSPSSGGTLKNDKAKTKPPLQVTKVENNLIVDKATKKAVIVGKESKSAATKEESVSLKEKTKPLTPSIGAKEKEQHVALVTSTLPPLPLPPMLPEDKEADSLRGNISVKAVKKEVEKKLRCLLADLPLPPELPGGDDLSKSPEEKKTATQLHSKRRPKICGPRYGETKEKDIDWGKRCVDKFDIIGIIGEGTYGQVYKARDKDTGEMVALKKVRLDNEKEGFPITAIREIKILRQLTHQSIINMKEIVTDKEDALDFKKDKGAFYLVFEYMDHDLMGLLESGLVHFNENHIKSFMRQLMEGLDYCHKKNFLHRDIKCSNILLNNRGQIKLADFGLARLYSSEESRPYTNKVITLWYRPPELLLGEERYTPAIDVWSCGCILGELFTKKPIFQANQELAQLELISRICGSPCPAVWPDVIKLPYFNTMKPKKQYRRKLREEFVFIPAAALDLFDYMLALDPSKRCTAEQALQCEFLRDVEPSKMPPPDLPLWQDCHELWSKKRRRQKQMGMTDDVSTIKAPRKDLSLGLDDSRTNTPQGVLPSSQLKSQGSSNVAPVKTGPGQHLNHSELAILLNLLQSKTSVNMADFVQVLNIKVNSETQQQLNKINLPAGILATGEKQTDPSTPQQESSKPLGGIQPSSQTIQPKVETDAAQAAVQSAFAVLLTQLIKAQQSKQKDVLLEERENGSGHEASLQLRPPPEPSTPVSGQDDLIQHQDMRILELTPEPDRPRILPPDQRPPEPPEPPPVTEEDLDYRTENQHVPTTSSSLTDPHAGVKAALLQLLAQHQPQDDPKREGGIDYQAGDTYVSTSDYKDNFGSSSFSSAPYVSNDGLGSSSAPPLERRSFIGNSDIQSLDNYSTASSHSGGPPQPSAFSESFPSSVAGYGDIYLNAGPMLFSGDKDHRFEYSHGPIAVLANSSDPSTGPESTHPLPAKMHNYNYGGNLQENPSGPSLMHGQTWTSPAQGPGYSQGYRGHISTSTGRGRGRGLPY
T10 sequence (O75909 whole entry partner, the tested form may be a part): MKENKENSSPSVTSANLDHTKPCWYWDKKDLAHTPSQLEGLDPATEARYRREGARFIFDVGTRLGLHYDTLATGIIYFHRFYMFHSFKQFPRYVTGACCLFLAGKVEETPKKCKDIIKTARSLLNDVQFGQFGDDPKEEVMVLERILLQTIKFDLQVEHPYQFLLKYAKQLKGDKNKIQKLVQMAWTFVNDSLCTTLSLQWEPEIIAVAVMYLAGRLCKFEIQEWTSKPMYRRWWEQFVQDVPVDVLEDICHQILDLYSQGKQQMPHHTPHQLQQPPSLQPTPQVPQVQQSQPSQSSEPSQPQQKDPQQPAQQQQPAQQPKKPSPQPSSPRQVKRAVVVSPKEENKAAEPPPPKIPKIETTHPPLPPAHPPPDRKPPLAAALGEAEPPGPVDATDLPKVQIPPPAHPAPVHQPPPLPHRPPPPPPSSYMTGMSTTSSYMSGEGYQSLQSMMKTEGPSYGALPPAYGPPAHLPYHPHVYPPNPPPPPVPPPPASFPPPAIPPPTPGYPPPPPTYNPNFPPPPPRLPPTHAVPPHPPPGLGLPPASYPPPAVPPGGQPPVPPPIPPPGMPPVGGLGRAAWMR
Procedure: as §2

[13] = molecular target: T11, CDK14/Cyclin Y (Homo sapiens, UniProt O94921); experiment: NanoBRET; format: cell-based; settings: read-out: NanoBRET EC50 ± SEM CDK14/Cyclin Y
T11 construct: Full-length kinases were obtained as plasmids cloned in frame with a terminal NanoLuc-fusion; CS1810C178 (CCNY); host or cells: HEK293T
T11 sequence (O94921 whole entry, the tested form may be a part): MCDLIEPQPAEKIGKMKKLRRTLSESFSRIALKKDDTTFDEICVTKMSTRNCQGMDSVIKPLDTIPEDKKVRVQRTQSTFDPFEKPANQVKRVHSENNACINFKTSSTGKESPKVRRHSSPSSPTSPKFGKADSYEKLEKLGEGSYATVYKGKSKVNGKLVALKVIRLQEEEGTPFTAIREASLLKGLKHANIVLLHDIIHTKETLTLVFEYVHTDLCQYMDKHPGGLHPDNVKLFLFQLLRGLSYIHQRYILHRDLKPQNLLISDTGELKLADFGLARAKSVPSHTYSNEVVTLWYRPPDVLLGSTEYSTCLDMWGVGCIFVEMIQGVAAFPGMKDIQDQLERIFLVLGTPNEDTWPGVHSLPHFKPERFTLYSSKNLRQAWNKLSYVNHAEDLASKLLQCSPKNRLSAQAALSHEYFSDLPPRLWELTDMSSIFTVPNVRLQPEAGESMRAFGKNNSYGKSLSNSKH
T11 sequence (Q8ND76 2-341 partner limits assumed): as the sequence (Q8ND76 2-341 partner limits assumed) above
Procedure: as §2

[14] = molecular target: T12, ULK1 (Homo sapiens, UniProt O75385); experiment: DSF; format: binding
T12 construct: purchased in-house DSF panel (SGC Frankfurt)
T12 sequence (O75385 1-283): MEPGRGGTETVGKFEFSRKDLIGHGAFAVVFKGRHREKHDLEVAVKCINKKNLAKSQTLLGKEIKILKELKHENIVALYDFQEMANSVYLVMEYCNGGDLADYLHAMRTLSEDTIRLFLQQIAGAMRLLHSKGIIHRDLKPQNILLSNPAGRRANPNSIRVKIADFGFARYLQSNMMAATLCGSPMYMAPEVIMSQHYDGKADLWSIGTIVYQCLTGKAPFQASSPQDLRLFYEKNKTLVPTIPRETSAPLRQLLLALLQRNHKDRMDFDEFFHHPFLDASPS
Procedure: as §1

[15] = molecular target: T13, FGFR3 (Homo sapiens, UniProt P22607); experiment: DSF; format: binding
T13 construct: purchased in-house DSF panel (SGC Frankfurt)
Procedure: as §3

T1 sequence (P45984 1-364): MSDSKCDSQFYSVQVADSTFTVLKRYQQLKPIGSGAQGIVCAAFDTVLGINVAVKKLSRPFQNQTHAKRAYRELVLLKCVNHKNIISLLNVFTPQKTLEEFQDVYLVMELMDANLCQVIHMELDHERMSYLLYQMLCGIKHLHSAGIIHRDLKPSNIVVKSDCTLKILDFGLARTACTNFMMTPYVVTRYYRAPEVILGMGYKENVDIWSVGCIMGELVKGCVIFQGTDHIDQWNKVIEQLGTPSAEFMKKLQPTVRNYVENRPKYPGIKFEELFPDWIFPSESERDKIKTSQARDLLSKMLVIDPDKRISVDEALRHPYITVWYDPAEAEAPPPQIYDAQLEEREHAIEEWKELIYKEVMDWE
T2 sequence (O43293 9-289): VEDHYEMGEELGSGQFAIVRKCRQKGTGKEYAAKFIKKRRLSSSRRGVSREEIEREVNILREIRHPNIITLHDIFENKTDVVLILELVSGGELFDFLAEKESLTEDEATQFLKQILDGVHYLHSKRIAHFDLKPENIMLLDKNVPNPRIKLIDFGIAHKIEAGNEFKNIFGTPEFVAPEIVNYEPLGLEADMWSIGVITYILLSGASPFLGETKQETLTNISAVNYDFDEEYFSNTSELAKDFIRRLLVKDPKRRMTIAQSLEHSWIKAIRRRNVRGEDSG

| Structure (SMILES) | ΔTm MAPK9 [1] [°C] | ΔTm DAPK3 [2] [°C] | ΔTm DYRK1A [3] [°C] | ΔTm TAF1 [4] [°C] | ΔTm EPHA4 [5] [°C] | ΔTm NEK2 [6] [°C] | ΔTm HIPK2 [7] [°C] | ΔTm STK17B [8] [°C] | EC50 [9] [µM] | EC50 [10] [µM] | EC50 [11] [µM] | EC50 [12] [µM] | EC50 [13] [µM] | ΔTm ULK1 [14] [°C] | ΔTm FGFR3 [15] [°C] |
| --- | --- | --- | --- | --- | --- | --- | --- | --- | --- | --- | --- | --- | --- | --- | --- |
| CC(C)OC(=O)c1cc(Nc2ccnc(NCc3ccc(NC(=O)OC(C)(C)C)cc3)n2)n[nH]1 [42d, isopropyl 3-((2-((4-((tert-butoxycarbonyl)amino)benzyl)amino)pyrimidin-4-yl)amino)-1H-pyrazole-5-carboxylate] | -0.7 | 0.1 | 0.0 | 0.5 | -0.1 | -1.4 | -0.2 | -2.8 | 1.14 ± 0.658 | 0.0337 ± 0.0025 | 2.08 ± 0.935 | 3.83 ± 2.28 | 0.0882 ± 0.0488 | – | – |
| CC(C)(C)OC(=O)Nc1ccc(CNc2nccc(Nc3cc(C(=O)OC(C)(C)C)[nH]n3)n2)cc1 [43d, tert-butyl 3-((2-((4-((tert-butoxycarbonyl)amino)benzyl)amino)pyrimidin-4-yl)amino)-1H-pyrazole-5-carboxylate] | -1.4 | 0.3 | 1.8 | 0.0 | 0.0 | 2.0 | 0.1 | -2.5 | 1.46 ± 0.552 | 0.0212 | 2.91 ± 1.57 | – | 0.0721 | – | – |
| CN[C@@H]1C[C@H]2O[C@@](C)([C@@H]1OC)n1c3ccccc3c3c4c(c5c6ccccc6n2c5c31)C(=O)NC4 [staurosporine, reference compound] | – | – | – | – | 6.2 | 3.3 | 4.4 | – | – | – | – | – | – | 11.3 | – |
| COC(=O)c1cc(Nc2ccnc(NCCOCCNC(=O)OC(C)(C)C)n2)[nH]n1 [21d, methyl 5-((2-((2-(2-((tert-butoxycarbonyl)amino)ethoxy)ethyl)amino)pyrimidin-4-yl)amino)-1H-pyrazole-3-carboxylate] | 1.1 | 3.3 | 1.2 | 0.0 | – | – | – | 1.6 | – | – | – | – | – | 2.3 | 0.6 |
| N#CCc1ccc(Nc2nccc(Nc3cc(C4CC4)[nH]n3)n2)cc1 [compound 1, reference compound] | 6.5 | 9.7 | 8.2 | 0.1 | – | – | – | 9.7 | 0.103 ± 0.0432 | 0.0099 ± 0.0012 | 0.0453 ± 0.0356 | 0.0661 ± 0.0199 | 0.0337 ± 0.0082 | 15.5 | 9.8 |
| COC(=O)c1cc(Nc2ccnc(NCc3ccc(NC(=O)OC(C)(C)C)cc3)n2)[nH]n1 [21i, methyl 5-((2-((4-((tert-butoxycarbonyl)amino)benzyl)amino)pyrimidin-4-yl)amino)-1H-pyrazole-3-carboxylate] | 1.7 | -0.6 | 3.4 | 0.2 | – | – | – | 3.4 | 10.4 ± 4.77 | 0.673 | 6.55 ± 3.48 | 24.2 ± 5.88 | 1.37 ± 0.374 | 2.7 | 1.2 |
